Source: patent US9505773B2 (Isomerase Therapeutics Limited, priority 2013, dated 2016)

Assays:
FKBP12 = FKBP12 (Homo sapiens (Human), UniProt P62942); test: FKBP12 PPlase assay; format: biochemical; settings: for inhibition at 1 µM: read-out: inhibition of FKBP12 at 1 uM; for Ki: FKBP12 PPlase assay, 6 concentrations in duplicate, data fitted to a Ki curve
[1] = system: murine T cell proliferation (PLP peptide-stimulated lymph node cells; mTOR-driven); test: Murine PLP T cell proliferation assay (PLP assay); format: cell-based; settings: for IC50: Mus musculus, PLP T-cell proliferation assay; for Ratio (PLP/FKBP*): PLP IC50 / FKBP12 Ki (Ki values from Example 19)

Chain of FKBP12 (P62942 whole entry, species assumed): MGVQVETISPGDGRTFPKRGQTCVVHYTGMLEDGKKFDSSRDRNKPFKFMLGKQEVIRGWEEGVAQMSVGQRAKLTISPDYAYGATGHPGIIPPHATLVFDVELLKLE

Row | inhibition at 1 µM (FKBP12) | Ki (FKBP12) | SMILES | IC50 [1] | Ratio (PLP/FKBP*) [1]
1 | 25% |  | CO[C@@H](C[C@@H]1CC[C@@H](C)[C@](O)(CC(=O)N2CCCC[C@H]2C(=O)O)O1)/C(C)=C/C=C/C=C/[C@@H](C)C[C@H]1CC[C@H](O)CC1 [Compound 3] | 1450 nM | 
2 |  |  | CO[C@H]1C[C@@H]2CC[C@@H](C)[C@@](O)(O2)C(=O)C(=O)N2CCCC[C@H]2C(=O)OC([C@H](C)C[C@H]2CC[C@H](O)CC2)C[C@@H](O)CC(=O)[C@H](C)C[C@H](C)/C=C/C=C/C=C/1C (some centres unmarked) [Compound 4] | 4460 nM | 
3 |  | 7.9 nM | CO[C@H]1C[C@@H]2CC[C@@H](C)[C@@](O)(O2)C(=O)C(=O)N2CCCC[C@H]2C(=O)OC([C@H](C)C[C@H]2CC[C@H](O)CC2)C/C=C(\C)[C@@H](O)CC(=O)[C@H](C)C[C@H](C)/C=C/C=C/C=C/1C (some centres unmarked) [Compound 5] |  | 
4 |  | 370 nM | CO[C@H]1C[C@@H]2CC[C@@H](C)[C@](O)(CC(=O)N3CCCC[C@H]3C(=O)OC([C@H](C)C[C@H]3CC[C@H](O)CC3)CC(=O)[C@H](C)C[C@H](C)/C=C/C=C/C=C/1C)O2 (some centres unmarked) [Compound 6] | 2620 nM | 7.095
5 |  | 5.9 nM | CO[C@H]1C[C@@H]2CC[C@@H](C)[C@@](O)(O2)C(=O)C(=O)N2CCCC[C@H]2C(=O)OC([C@H](C)C[C@@H]2CC[C@@H](O)[C@H](OC)C2)C/C=C(\C)[C@@H](O)CC(=O)[C@H](C)C[C@H](C)/C=C/C=C/C=C/1C (some centres unmarked) [Compound 8] | 490 nM | 83.05
6 |  | 180 nM | CO[C@H]1C[C@@H]2CC[C@@H](C)[C@](O)(CC(=O)N3CCCC[C@H]3C(=O)OC([C@H](C)C[C@@H]3CC[C@@H](O)[C@H](O)C3)C/C=C(\C)[C@@H](O)CC(=O)[C@H](C)C[C@H](C)/C=C/C=C/C=C/1C)O2 (some centres unmarked) [Compound 9] |  | 
7 |  | 4.2 nM | CO[C@H]1C[C@@H]2CC[C@@H](C)[C@@](O)(O2)C(=O)C(=O)N2CCCC[C@H]2C(=O)OC([C@H](C)C[C@@H]2CC[C@@H](O)[C@H](O)C2)C/C=C(\C)[C@@H](O)CC(=O)[C@H](C)C[C@H](C)/C=C/C=C/C=C/1C (some centres unmarked) [Compound 10] | 14000 nM | 3338.333
8 |  | 430 nM | CO[C@H]1C[C@@H]2CC[C@@H](C)[C@](O)(CC(=O)N3CCCC[C@H]3C(=O)O[C@H](/C(C)=C/CC(O)[C@H](C)C[C@@H]3CC[C@@H](O)[C@H](O)C3)CC(=O)[C@H](C)C[C@H](C)/C=C/C=C/C=C/1C)O2 (some centres unmarked) [Compound 11] | 4180 nM | 9.721
9 |  | 9.5 nM | CO[C@H]1C[C@@H]2CC[C@@H](C)[C@@](O)(O2)C(=O)C(=O)N2CCCC[C@H]2C(=O)OC([C@H](C)Cc2ccc(CO)s2)C/C=C(\C)[C@@H](O)CC(=O)[C@H](C)C[C@H](C)/C=C/C=C/C=C/1C (some centres unmarked) [Compound 12] | 2860 nM | 301.5789
10 |  | 13 nM | CO[C@H]1C[C@@H]2CC[C@@H](C)[C@@](O)(O2)C(=O)C(=O)N2CCCC[C@H]2C(=O)OC([C@H](C)Cc2ccncc2)C/C=C(\C)[C@@H](O)CC(=O)[C@H](C)C[C@H](C)/C=C/C=C/C=C/1C (some centres unmarked) [Compound 13] | 6590 nM | 506.6154
11 |  | 6.5 nM | CO[C@H]1C[C@@H]2CC[C@@H](C)[C@@](O)(O2)C(=O)C(=O)N2CCCC[C@H]2C(=O)O[C@H]([C@H](C)C[C@H]2CC[C@H](O)CC2)CC(O)CC(=O)[C@H](C)/C=C(\C)[C@@H](O)CC(=O)[C@@H](C)C[C@H](C)/C=C/C=C/C=C/1C (some centres unmarked) [Compound 14] |  | 
12 | 31% |  | CO[C@H]1C[C@@H]2CC[C@@H](C)[C@@](O)(O2)C(=O)C(=O)N2CCCC[C@H]2C(=O)OC2CCC(CC2)C(=O)[C@H](C)C[C@H](C)/C=C/C=C/C=C/1C [Compound 15] |  | 
13 |  | 460 nM | C\C1=C/C=C/C=C/[C@@H](C)C[C@@H](C)C(=O)C2CCC(CC2)OC(=O)[C@@H]2CCCCN2C(=O)C(=O)[C@]2(O)O[C@@H](CC[C@H]2C)C[C@@H]1O [Compound 16] |  | 
14 |  | 45 nM | CO[C@H]1C[C@@H]2CC[C@@H](C)[C@](O)(CC(=O)N3CCCC[C@H]3C(=O)O[C@H]([C@H](C)C[C@H]3CC[C@H](O)CC3)C/C=C(\C)[C@@H](O)CC(=O)[C@H](C)C[C@H](C)/C=C/C=C/C=C/1C)O2 [Compound 18] |  | 
15 |  | 7.7 nM | C/C1=C\C[C@@H]([C@H](C)C[C@H]2CC[C@H](O)CC2)OC(=O)[C@@H]2CCCCN2C(=O)C(=O)[C@]2(O)O[C@@H](CC[C@H]2C)C[C@H](O)/C(C)=C/C=C/C=C/[C@@H](C)C[C@@H](C)C(=O)C[C@@H]1O [Compound 19] |  | 
16 |  | 18 nM | CO[C@H]1C[C@@H]2CC[C@@H](C)[C@@](O)(O2)C(=O)C(=O)N2CCCC[C@H]2C(=O)O[C@H]([C@H](C)C[C@H]2CC[C@H](O)CC2)C/C=C(\C)[C@@H](O)[C@@H](O)C(=O)[C@H](C)C[C@H](C)/C=C/C=C/C=C/1C [Compound 20] |  | 
17 |  | 12 nM | CO[C@@H](C[C@@H]1CC[C@@H](C)[C@](O)(C(=O)C(=O)N2CCCC[C@H]2C(=O)O[C@@H](C/C=C(\C)C=O)[C@H](C)C[C@H]2CC[C@H](O)CC2)O1)/C(C)=C/C=C/C=C/[C@@H](C)C[C@@H](C)C(=O)CO [Compound 22] |  | 
18 |  | 10 nM | CC/C1=C\CC(/C(C)=C/C(C)C(C)O)OC(=O)C2CCCCN2C(=O)C(=O)C2(O)OC(CCC2C)CC(O)C(C)C(O)CC(O)CC(O)/C(C)=C/C(C)CC(C)C1O (centres unmarked) [Meridamycin] |  | 
19 |  |  | CO[C@H]1C[C@@H]2CC[C@@H](C)[C@@](O)(O2)C(=O)C(=O)N2CCCC[C@H]2C(=O)O[C@H]([C@H](C)C[C@@H]2CC[C@@H](O)[C@H](OC)C2)CC(=O)[C@H](C)/C=C(\C)[C@@H](O)[C@@H](OC)C(=O)[C@H](C)C[C@H](C)/C=C/C=C/C=C/1C [Rapamycin, rapamycin, reference compound] | 0.024 nM | 
